In patent US11370779B2, “Pharmaceutical composition for preventing or treating acute myeloid leukemia or metastatic breast cancer” (PELEMED CO., LTD., priority 2017, dated 2022):
Where two headings read alike, the source gives them in different places.

What was measured:
FLT3 kinase = FLT3 kinase (Homo sapiens (Human), UniProt P36888); assay: In vitro FLT3 kinase HTRF assay (Example 2); assay type: biochemical; settings: FLT3 vs JAK2, JAK3, cMET, IRAK4
Method: Inhibition of the FLT3 kinase activity was measured using homogeneous, time-resolved fluorescence (HTRF) assays. Recombinant proteins containing the FLT3 kinase domain were purchased from Carna biosciences (Japan). Optimal enzyme, ATP, and substrate concentrations were established using the HTRF KinEASE kit (Cisbio, France) according to the manufacturer's instructions. The FLT3 enzymes were mixed in sequence with diluted compounds and peptide substrates in a kinase reaction buffer (50 mM HEPES (pH 7.0), 500 μM ATP, 0.1 mM sodium orthovanadate, 5 mM MgCl2, 1 mM DTT, 0.01% bovine serum albumin (BSA), and 0.02% NaN3). After the addition of the reagents for detection, the TR-FRET signal was measured using a Victor multilabel reader (Perkin Elmer, Waltham, Mass., USA). […] JAK2, JAK3, cMET, and RET in vitro kinase assays were also performed using the HTRF assay.

MV4;11 cells = assay: Cell viability, EZ-Cytox tetrazolium assay, MV4;11; assay type: cell-based, human
Method: The cultured cells were incubated at 3° C. with 5% CO2.
(§1) Cell viability was assessed by a tetrazolium-based assay using the EZ-Cytox Cell Viability Assay kit (DaeilLab, Korea). Briefly, 2,000 to 15,000 cells were plated in 96-well plates in 100 μl of medium. The next day, the cells were treated with compounds together with dimethyl sulfoxide (DMSO) as a negative control. Three days (72 hours) after the drug addition, 15 μl of the EZ-Cytox kit reagent was added to each well of the 96-well plate and then incubated at 37° C. in a humidified CO2 incubator for 4 hours. After incubation, the optical density (OD) was measured at a wavelength of 450 nm using a Victor multilabel reader (Perkin Elmer, Waltham, Mass., USA).

cMET = cMET (Homo sapiens (Human), UniProt P08581); assay: cMET in vitro kinase HTRF assay; assay type: biochemical; settings: mean ± S.D.
cMET, sequence (P08581 25-1390): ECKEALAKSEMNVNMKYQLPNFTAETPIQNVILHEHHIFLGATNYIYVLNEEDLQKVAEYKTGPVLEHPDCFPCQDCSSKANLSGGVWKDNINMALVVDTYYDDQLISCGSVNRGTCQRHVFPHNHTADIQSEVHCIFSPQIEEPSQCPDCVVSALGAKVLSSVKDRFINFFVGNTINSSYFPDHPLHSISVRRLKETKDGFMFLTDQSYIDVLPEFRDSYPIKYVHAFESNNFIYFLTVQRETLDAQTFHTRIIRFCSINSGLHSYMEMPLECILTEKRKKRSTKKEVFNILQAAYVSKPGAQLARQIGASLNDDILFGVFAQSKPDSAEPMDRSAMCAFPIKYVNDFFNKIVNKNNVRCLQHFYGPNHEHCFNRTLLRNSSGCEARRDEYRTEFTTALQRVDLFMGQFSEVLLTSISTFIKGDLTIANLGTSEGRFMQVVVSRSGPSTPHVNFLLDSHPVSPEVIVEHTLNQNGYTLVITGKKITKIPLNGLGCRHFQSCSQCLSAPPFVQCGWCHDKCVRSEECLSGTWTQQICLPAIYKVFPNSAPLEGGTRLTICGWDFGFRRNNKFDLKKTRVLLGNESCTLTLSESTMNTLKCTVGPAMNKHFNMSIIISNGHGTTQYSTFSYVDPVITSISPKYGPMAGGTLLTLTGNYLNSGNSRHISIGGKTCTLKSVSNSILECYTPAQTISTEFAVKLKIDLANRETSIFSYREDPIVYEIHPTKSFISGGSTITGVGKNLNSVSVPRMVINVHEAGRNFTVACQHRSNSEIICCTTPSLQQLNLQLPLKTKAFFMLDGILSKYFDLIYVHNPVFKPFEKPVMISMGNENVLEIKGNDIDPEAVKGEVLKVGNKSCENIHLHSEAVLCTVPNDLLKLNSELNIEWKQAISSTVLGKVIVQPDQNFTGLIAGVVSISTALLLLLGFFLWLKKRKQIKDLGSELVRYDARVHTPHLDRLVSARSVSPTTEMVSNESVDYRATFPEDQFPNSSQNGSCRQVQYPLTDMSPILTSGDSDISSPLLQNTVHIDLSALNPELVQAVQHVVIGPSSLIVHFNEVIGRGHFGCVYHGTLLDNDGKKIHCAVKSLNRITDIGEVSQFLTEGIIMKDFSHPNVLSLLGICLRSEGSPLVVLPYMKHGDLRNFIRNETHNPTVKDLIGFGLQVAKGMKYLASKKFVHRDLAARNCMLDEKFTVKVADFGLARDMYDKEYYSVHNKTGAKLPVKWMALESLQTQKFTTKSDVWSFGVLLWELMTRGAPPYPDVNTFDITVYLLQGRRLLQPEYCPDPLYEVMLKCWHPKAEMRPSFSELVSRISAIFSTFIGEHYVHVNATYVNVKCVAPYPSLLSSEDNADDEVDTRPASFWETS
Method: Inhibition of the FLT3 kinase activity was measured using homogeneous, time-resolved fluorescence (HTRF) assays. Recombinant proteins containing the FLT3 kinase domain were purchased from Carna biosciences (Japan). Optimal enzyme, ATP, and substrate concentrations were established using the HTRF KinEASE kit (Cisbio, France) according to the manufacturer's instructions. The FLT3 enzymes were mixed in sequence with diluted compounds and peptide substrates in a kinase reaction buffer (50 mM HEPES (pH 7.0), 500 μM ATP, 0.1 mM sodium orthovanadate, 5 mM MgCl2, 1 mM DTT, 0.01% bovine serum albumin (BSA), and 0.02% NaN3). After the addition of the reagents for detection, the TR-FRET signal was measured using a Victor multilabel reader (Perkin Elmer, Waltham, Mass., USA). The IC50 was calculated by nonlinear regression using Prism version 5.01 (GraphPad). JAK2, JAK3, cMET, and RET in vitro kinase assays were also performed using the HTRF assay.

PC-3 cells = assay: Cytotoxicity assay, PC-3; assay type: cell-based; settings: Homo sapiens, mean ± S.D.
Method: MDA-MB-231 (metastatic breast cancer, ATCC HTB-26), Jurkat (human acute T lymphocytic leukemia, ATCC TIB-152), and K-562 (human chronic myelogenous leukemia, ATCC CCL-243) cells were cultured in RPMI-1640 (Sigma Co.). MCF7 (human breast adenocarcinoma, ATCC HTB-22) and PC-3 (human prostate adenocarcinoma, ATCC CRL-1435) cells were cultured in DMEM (Sigma Co.) medium supplemented with 10% fetal bovine serum and 1% penicillin/streptomycin. The cultured cells were incubated at […] with 5% CO2. Cell viability was assessed by a tetrazolium-based assay using the EZ-Cytox Cell Viability Assay kit (DaeilLab, Korea). […] The next day, the cells were treated with compounds together with dimethyl sulfoxide (DMSO) as a negative control. Three days (72 hours) after the drug addition, 15 μl of the EZ-Cytox kit reagent was added to each well of the 96-well plate and then incubated at 37° C. in a humidified CO2 incubator for 4 hours. After incubation, the optical density (OD) was measured at a wavelength of 450 nm using a Victor multilabel reader (Perkin Elmer, Waltham, Mass., USA). The IC50 was calculated by nonlinear regression using Prism version 5.01 (GraphPad, La Jolla, Calif., USA).

MV4;11 xenograft = assay: MV4;11 mouse tumor xenograft, intravenous LDD1937; assay type: in vivo
Method: The drug or the control PBS was injected daily for a duration of 21 days.

[1] = test system: MOLM14 FLT3-ITD (MOLM14-ITD); assay: Cell proliferation MTT assay, MOLM14-ITD; assay type: cell-based; settings: Homo sapiens, MOLM-14
Method: (§3) MOLM14 were purchased from the ATCC and the cells were maintained in RPMI medium (Hyclone) with 10% Fetal bovine serum (Gibco) and 1% penicillin/streptomycin.
Viral particles were infected to MOLM14 cells and 48 h after infection, infected cells were selected with puromycin (1 μg/mL).

MOLM14 FLT3-ITD-D835Y = assay: Cell proliferation MTT assay, MOLM14-ITD-D835Y; assay type: cell-based, human; settings: Homo sapiens, MOLM-14
Method: as §3
Mutagenesis is performed in FLT3-ITD MSCV plasmid using Q5 site-directed mutagenesis kit (E05545). […] Retroviral particles were produced by transiently transfecting HEK293T cells with Retroviral vectors together with packaging vectors, GPE and VSVG. 48 h after transfection, media containing viral particles were collected and filtered for infection. Viral particles were infected to MOLM14 cells and 48 h after infection, infected cells were selected with puromycin (1 μg/mL).

HCT-116 (colon cancer) = assay: WST anti-proliferative assay, HCT-116; assay type: cell-based; settings: Homo sapiens, HCT-116, read-out: % inhibition at 1 μM, HCT-116
Method: (§2) (Table 6) Compound 33 (LDD-2635) was tested at 8 concentrations to measure their anti-proliferative effects on various human cancer cell lines using WST assay. The GI50 values were obtained in triplicate and the error bars represent the standard error of the mean.

MOLM14 Wild type = assay: Cell proliferation MTT assay, MOLM14 wild type; assay type: cell-based; settings: Homo sapiens, MOLM-14
From the text: as §3

MDA-MB-231 = assay: Cell viability, EZ-Cytox tetrazolium assay, MDA-MB-231; assay type: cell-based, human; settings: Homo sapiens, MDA-MB-231; 72 hours
Method: MDA-MB-231 (metastatic breast cancer, ATCC HTB-26), Jurkat (human acute T lymphocytic leukemia, ATCC TIB-152), and K-562 (human chronic myelogenous leukemia, ATCC CCL-243) cells were cultured in RPMI-1640 (Sigma Co.). MCF7 (human breast adenocarcinoma, ATCC HTB-22) and PC-3 (human prostate adenocarcinoma, ATCC CRL-1435) cells were cultured in DMEM (Sigma Co.) medium supplemented with 10% fetal bovine serum and 1% penicillin/streptomycin. The cultured cells were incubated at 3° C. with 5% CO2.
as §1, with “USA). The IC50 was calculated by nonlinear regression using Prism version 5.01 (GraphPad, La Jolla, Calif., USA).” for “USA).”

SK-OV-3 (ovarian cancer) = assay: WST anti-proliferative assay, SK-OV-3; assay type: cell-based; settings: Homo sapiens, SK-OV-3, read-out: % inhibition at 1 μM, SK-OV-3
Method: as §2

HepG2 (liver cancer) = assay: WST anti-proliferative assay, HepG2; assay type: cell-based; settings: Homo sapiens
Method: as §2

MV4-11 cells = assay: Cytotoxicity WST assay, MV4-11 (Example 3); assay type: cell-based, human; settings: for GI50: Homo sapiens, MV4-11, WST assay
Method: Test 96-well plates were incubated at 37° C. with 5% CO2 for 72 h. After 72 h incubation, 10 μL of the EZ-Cytox kit reagent from EZ-cytox Cell viability assay kit (DaeilLab, Korea) were added to each well of the 96-well plate and then incubated at 37° C. with 5% CO2 for 3 h. […] The IC50 values were calculated with nonlinear regression analysis using OriginPro 9.1 software (OriginLab, Northampton, Mass.). […] The GI50 values were obtained in triplicate and the error bars represent the standard error of the mean.

MDA-MB-231 xenograft = assay: MDA-MB-231 mouse tumor xenograft; assay type: in vivo; settings: 20 mg/kg/p.o/day, 4 weeks
Method: 6-weeks-old Balb/c nu/nu mice (female) were purchased from Central Lab. Animal Inc. to be used. […] The candidate substances LDD-2614 (Compound 21), 2633 (Compound 28), 2634 (Compound 34), 2635 (Compound 33) were administered at 20 mg/kg/p.o/day, and doxorubicin, which was a control, was administered at 5 mg/kg/i.p (once a week) for 4 weeks.

PC3 (prostate cancer) = assay: WST anti-proliferative assay, PC3; assay type: cell-based; settings: Homo sapiens, read-out: % inhibition at 1 μM, PC3
Method: as §2

A549 (lung cancer) = assay: WST anti-proliferative assay, A549; assay type: cell-based; settings: Homo sapiens, A549, read-out: % inhibition at 1 μM, A549
Method: as §2

MV4-11 xenograft = assay: MV4-11 mouse tumor xenograft, oral administration
Method: The drug or the control PBS was administered daily for a duration of 21 days. Tumor sizes were measured twice a week for 21 days, and the tumor volumes were calculated with the following formula: V (volume)=X (length)×D (width)2/2. After 21 days, the mice were sacrificed, and the tumor weights were measured.
An in vivo MV4-11 xenograft study was performed to determine the efficacy of the indirubin derivatives. MV4-11 cells were subcutaneously injected into BALB/c nu/nu mice, and tumors were allowed to grow to a size of approximately 100 mm^3.

[2] = Homo sapiens, MV4-11, 72 hours, read-out: GI50(nM) MV4;11

FLT3 kinase, sequence (P36888 610-943): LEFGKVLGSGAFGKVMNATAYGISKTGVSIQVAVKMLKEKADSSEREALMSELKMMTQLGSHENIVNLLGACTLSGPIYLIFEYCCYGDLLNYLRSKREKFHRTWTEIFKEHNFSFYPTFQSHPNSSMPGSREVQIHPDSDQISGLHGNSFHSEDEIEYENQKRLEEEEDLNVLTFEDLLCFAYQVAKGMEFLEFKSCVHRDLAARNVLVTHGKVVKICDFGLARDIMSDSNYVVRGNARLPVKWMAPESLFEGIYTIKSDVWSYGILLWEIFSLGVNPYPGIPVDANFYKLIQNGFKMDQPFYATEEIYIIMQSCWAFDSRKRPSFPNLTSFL

COC(=O)c1ccc2c(c1)/C(=C1/Nc3ccccc3/C1=N\OCCN1CCNCC1)C(=O)N2.Cl.Cl [Compound 4, Methyl (2Z,3E)-2′-oxo-3-((2-(piperazin-1-yl)ethoxy)imino)-[2,3′-biindolinylidene]-5′-carboxylate dihydrochloride]
difference in the IC50 between FLT3 and other kinases (FLT3 kinase): ≥ 170 fold
increase of activity against MV4;11 compared to Compound 1 (MV4;11 cells): 40 fold
GI50 (MV4;11 cells; [2]): 1 nM
IC50 (MV4;11 cells; Homo sapiens, MV4-11, Table 1, 72 hours): 1 nM
GI50 (MV4;11 cells; Homo sapiens, MV4-11, Table 4, mean ± S.D., read-out: GI50 (μM) MV-4-11): 1.2 ± 0.15 nM
IC50 (cMET): 0.25 ± 0.074 µM
GI50 (PC-3 cells): 1.1 ± 0.14 µM
day from which the tumor disappeared (MV4;11 xenograft; 10 mg/kg i.v. daily, based on measured tumor volume): 3 days
body weight during the administration period (MV4;11 xenograft; 5 or 10 mg/kg i.v., 21 days, between groups): no significant difference in body weight

Cl.Cl.O=C1Nc2ccc(F)cc2/C1=C1/Nc2ccccc2/C1=N\OCCN1CCNCC1 [Compound 33, (2Z,3E)-5′-fluoro-3-((2-(piperazin-1-yl)ethoxy)imino)-[2,3′-biindolinylidene]-2′-one dihydrochloride]
GI50 [1]: 1.85 nM
GI50 (MOLM14 FLT3-ITD-D835Y): 1.87 nM
GI50 (MV4;11 cells; [2]): 1 nM
inhibition at 1 µM (HCT-116 (colon cancer)): 38.5%
GI50 (MOLM14 Wild type): 4.88 nM
GI50 (MDA-MB-231): 117 nM
inhibition at 1 µM (SK-OV-3 (ovarian cancer)): 16%
GI50 (HepG2 (liver cancer)): 1.1 ± 0.2 µM
times more sensitive against MV4-11 cells than K562 cell line (MV4-11 cells): 430 times
GI50 (MV4-11 cells; Table 6, read-out: GI50 value (μM) MV4-11): 0.001 ± 0.0003 µM
GI50 (MV4-11 cells; read-out: GI50 MV4-11 cells): 0.001 µM
weights of the liver and the kidney (MDA-MB-231 xenograft): no significant difference
inhibition at 1 µM (PC3 (prostate cancer)): 40.7%
inhibition at 1 µM (A549 (lung cancer)): 2.05%
weight loss or other signs of toxicity during the administration period (MV4-11 xenograft; 20 mg/kg oral once daily for 21 days): no weight loss or any other signs of toxicity
day by which the tumor disappeared (MV4-11 xenograft; 20 mg/kg oral once daily, based on measured tumor volume): ≤ 14 days
